{"source": "paper PMC13288994", "about": "“Identification and characterization of novel chikungunya virus polymerase inhibitors” (Journal of Virology, 2026)", "key": {"in vitro [1]": {"assay": "in vitro", "conditions": "African green monkey"}, "HPIV3-nLuc": {"test_system": "HPIV3-nLuc", "assay": "microbe, parasite or virus in culture", "format": "cell-based", "conditions": "Human respirovirus 3, Vero C1008; VeroE6 cells; read-out: Antiviral potency (EC50 [µM]) HPIV3"}, "RSV A2-L19F": {"test_system": "RSV A2-L19F", "assay": "microbe, parasite or virus in culture", "format": "cell-based", "conditions": "human respiratory syncytial virus; Hep-2 cells; read-out: Antiviral potency (EC50 [µM]) RSV"}, "VSV-nLuc": {"test_system": "VSV-nLuc", "assay": "microbe, parasite or virus in culture", "format": "cell-based", "conditions": "Vesicular stomatitis virus, Vero C1008, read-out: Antiviral potency (EC50 [µM]) VSV"}, "SARS-CoV-2-nLuc": {"test_system": "SARS-CoV-2-nLuc", "assay": "microbe, parasite or virus in culture", "format": "cell-based", "conditions": "Severe acute respiratory syndrome coronavirus 2; VeroE6-TMPRSS2 cells; read-out: Antiviral potency (EC50 [µM]) SARS-CoV-2"}, "[2]": {"test_system": "CHIKV-nLuc (181/25 strain)", "assay": "microbe, parasite or virus in culture", "format": "cell-based, Chikungunya virus", "conditions": "Chikungunya virus, 384-well format, read 20 h after infection, read-out: Normalized percent inhibition in primary screen"}, "SINV-GLuc": {"test_system": "SINV-GLuc", "assay": "microbe, parasite or virus in culture", "format": "cell-based", "conditions": "Sindbis virus, Vero C1008; VeroE6 cells; read-out: Antiviral potency (EC50 [µM]) SINV"}, "in vitro [3]": {"assay": "in vitro", "conditions": "human"}}}
{"compound": "Cc1ccc(NC(=O)c2oc3ccccc3c2NC(=O)c2nc(S(C)(=O)=O)ncc2Cl)cc1", "note": "[GAP-1027276]", "values": [{"measurement": "CC50", "setting": "in vitro [1]", "value": "> 20", "unit": "µM"}, {"measurement": "EC50", "setting": "HPIV3-nLuc", "value": "> 20", "unit": "µM"}, {"measurement": "EC50", "setting": "RSV A2-L19F", "value": "> 10", "unit": "µM"}, {"measurement": "EC50", "setting": "VSV-nLuc", "value": "> 20", "unit": "µM"}, {"measurement": "EC50", "setting": "SARS-CoV-2-nLuc", "value": "> 20", "unit": "µM"}, {"measurement": "inhibition at 5 µM", "setting": "[2]", "value": 98.2, "unit": "%"}, {"measurement": "EC50", "setting": "SINV-GLuc", "value": "> 20", "unit": "µM"}, {"measurement": "CC50", "setting": "in vitro [3]", "value": 20, "unit": "µM"}]}
{"compound": "CCNc1nc(C)cc(N2CCN(C(=O)c3ccccc3Cl)CC2)n1", "note": "[GAP-1358555]", "values": [{"measurement": "inhibition at 5 µM", "setting": "[2]", "value": 85.8, "unit": "%"}]}
{"compound": "O=C(CSc1c2c(nc3cc(Cl)ccc13)CCCC2)Nc1ccc2c(c1)OCCO2", "note": "[GAP-1022901]", "values": [{"measurement": "CC50", "setting": "in vitro [1]", "value": "> 20", "unit": "µM"}, {"measurement": "EC50", "setting": "HPIV3-nLuc", "value": "> 20", "unit": "µM"}, {"measurement": "EC50", "setting": "RSV A2-L19F", "value": "> 10", "unit": "µM"}, {"measurement": "EC50", "setting": "VSV-nLuc", "value": "> 20", "unit": "µM"}, {"measurement": "EC50", "setting": "SARS-CoV-2-nLuc", "value": "> 20", "unit": "µM"}, {"measurement": "inhibition at 5 µM", "setting": "[2]", "value": 82.1, "unit": "%"}, {"measurement": "EC50", "setting": "SINV-GLuc", "value": "> 20", "unit": "µM"}, {"measurement": "CC50", "setting": "in vitro [3]", "value": "> 20", "unit": "µM"}]}
{"compound": "CC(C)(C)c1ccc(C(=O)On2c(-c3ccccc3F)nc3ccccc3c2=O)cc1", "note": "[GAP-1000864]", "values": [{"measurement": "CC50", "setting": "in vitro [1]", "value": "> 20", "unit": "µM"}, {"measurement": "EC50", "setting": "HPIV3-nLuc", "value": "> 20", "unit": "µM"}, {"measurement": "EC50", "setting": "RSV A2-L19F", "value": "> 10", "unit": "µM"}, {"measurement": "EC50", "setting": "VSV-nLuc", "value": "> 20", "unit": "µM"}, {"measurement": "EC50", "setting": "SARS-CoV-2-nLuc", "value": "> 20", "unit": "µM"}, {"measurement": "inhibition at 5 µM", "setting": "[2]", "value": 91, "unit": "%"}, {"measurement": "EC50", "setting": "SINV-GLuc", "value": "> 20", "unit": "µM"}, {"measurement": "CC50", "setting": "in vitro [3]", "value": "> 20", "unit": "µM"}]}
{"compound": "CCNc1nc(C)cc(N2CCN(C(=O)c3ccc(F)cc3Cl)CC2)n1", "note": "[GAP-1358964]", "values": [{"measurement": "inhibition at 5 µM", "setting": "[2]", "value": 91.6, "unit": "%"}]}
{"compound": "CCS(=O)(=O)c1ncc(Cl)c(C(=O)Nc2nnc(C(C)C)s2)n1", "note": "[GAP-1027282]", "values": [{"measurement": "CC50", "setting": "in vitro [1]", "value": "> 20", "unit": "µM"}, {"measurement": "EC50", "setting": "HPIV3-nLuc", "value": "> 20", "unit": "µM"}, {"measurement": "EC50", "setting": "RSV A2-L19F", "value": "> 10", "unit": "µM"}, {"measurement": "EC50", "setting": "VSV-nLuc", "value": "> 20", "unit": "µM"}, {"measurement": "EC50", "setting": "SARS-CoV-2-nLuc", "value": "> 20", "unit": "µM"}, {"measurement": "inhibition at 5 µM", "setting": "[2]", "value": 97.2, "unit": "%"}, {"measurement": "EC50", "setting": "SINV-GLuc", "value": "> 20", "unit": "µM"}, {"measurement": "CC50", "setting": "in vitro [3]", "value": 16.7, "unit": "µM"}]}
{"compound": "CCNc1nc(C)cc(N2CCN(C(=O)c3cc(Cl)ccc3OC)CC2)n1", "note": "[GAP-1350926]", "values": [{"measurement": "inhibition at 5 µM", "setting": "[2]", "value": 82.1, "unit": "%"}]}
